The subject of the assay is Plasmodium berghei. Description: Luciferase/luciferin-expressing antifolate-resistant parasites were used to infect a culture of HepG2 cells that were pre-incubated with compounds. Infected hepatocytes emit light due to the luciferase reaction. Assay results are presented as the percent inhibition of light emission compared to control. […]. Format: functional. Particulars: sporozoite; for IC90: read-out: LUCIFERASE INFECTION ASSAY - IC90.

[1] abbreviates: read-out: LUCIFERASE INFECTION ASSAY - IC50.

Take `CS(=O)(=O)NCCc1ccc(C(=O)Nc2ccc(Cl)c(C(F)(F)F)c2)s1`: the 90% effect concentration (IC90) was more than 10 µM. Besides, the IC50 (HEPG2TOX_HILL_SLOPE 16.3, HEPG2TOX_R_SQUARED 0.947, PBLUC_HILL_SLOPE 9.17, PBLUC_R_SQUARED 0.224, read-out: LUCIFERASE INFECTION ASSAY - IC50) is 8.32 µM.

Turning to `COc1cc(-c2cnc3cnc(-c4ccc(NCCN5CCOCC5)nc4)cn23)ccc1O`, the IC90 was more than 7.39 µM. For the same molecule, the IC50 (HEPG2TOX_HILL_SLOPE 1.25, HEPG2TOX_R_SQUARED 0.41, PBLUC_HILL_SLOPE 2.45, PBLUC_R_SQUARED 0.19, read-out: LUCIFERASE INFECTION ASSAY - IC50) amounted to 6.15 µM.

`CC(C)(C)c1ccc(C(=N)NOC(=O)c2sccc2Cl)cc1`: the IC90 was determined as 2.4 µM. Moreover, the IC50 (FFLUC_HILL_SLOPE 2.56, FFLUC_R_SQUARED 0.405, HEPG2TOX_HILL_SLOPE 0.0994, HEPG2TOX_R_SQUARED 0.101, PBLUC_HILL_SLOPE 0.809, PBLUC_R_SQUARED 0.834, read-out: LUCIFERASE INFECTION ASSAY - IC50) was 0.159 µM.

Consider `O=C(CN1CCCc2ccccc21)NC(=O)NCc1ccccc1`, for which the IC90 came to 7.44 µM. For the same molecule, the IC50 (PBLUC_HILL_SLOPE 112, PBLUC_R_SQUARED 0.458, read-out: LUCIFERASE INFECTION ASSAY - IC50) turned out to be 7.29 µM.

Turning to `COc1ccc2oc(C(=O)Nc3nnc(C(C)C)s3)c(C)c2c1`, the IC90 was more than 10 µM. Moreover, under setting [1], the IC50 was found to be 4.49 µM.

For `NC(Cc1ccccc1)c1csc(NC(=O)Nc2ccccc2-c2ccccc2)n1` (stereo unspecified), the IC90 is more than 7.96 µM. Under setting [1], the IC50 was more than 7.96 µM.

On to `Cc1[nH]c(=S)c(C#N)c2c1C1(C)CCC3C(CC=C4CC(O)CCC43C)C1C2` (stereo unspecified), for which the IC90 was more than 10 µM. For the same molecule, under setting [1], the IC50 was more than 10 µM.

Take `CC(C)(C)c1ccc(C(=O)ONC(=O)c2ccc(Cl)c(Cl)c2)cc1`: the IC90 was more than 9.01 µM. Besides, the IC50 under setting [1] is more than 9.01 µM.

Consider `Cn1c(NCCOc2cccc3c2OC(C)(C)C3)c(C#N)c(=O)n(C)c1=O`, for which the IC90 was more than 10 µM. For the same molecule, the IC50 under setting [1] was more than 10 µM.

With `CCCN1CCc2nc(NCc3ccc(Oc4ccccc4)cc3)ncc2C1`, the IC90 is more than 8.81 µM. Moreover, the IC50 under setting [1] was more than 8.81 µM.

Take `O=C(CCn1cnc([N+](=O)[O-])c1)Nc1nc(-c2ccccc2)c(-c2ccccc2)s1`: the IC90 stood at 7.85 µM. The IC50 (FFLUC_HILL_SLOPE 11.3, FFLUC_R_SQUARED 0.217, PBLUC_HILL_SLOPE 4.55, PBLUC_R_SQUARED 0.65, read-out: LUCIFERASE INFECTION ASSAY - IC50) was found to be 4.84 µM.

For the molecule `NC(=O)c1ccsc1NC(=O)Cc1coc2ccc3ccccc3c12`, the IC90 is more than 10 µM. For the same molecule, the IC50 (FFLUC_HILL_SLOPE 2.43, FFLUC_R_SQUARED 0.812, HEPG2TOX_HILL_SLOPE 2.74, HEPG2TOX_R_SQUARED 0.883, PBLUC_HILL_SLOPE 2.33, PBLUC_R_SQUARED 0.39, read-out: LUCIFERASE INFECTION ASSAY - IC50) is 5.74 µM.

In the case of `Cc1ccccc1NC(=S)N/N=C/c1ccccc1[N+](=O)[O-]`, the IC90 worked out at 3.66 µM. The IC50 (HEPG2TOX_HILL_SLOPE 11.4, HEPG2TOX_R_SQUARED 0.668, PBLUC_HILL_SLOPE 15.4, PBLUC_R_SQUARED 0.358, read-out: LUCIFERASE INFECTION ASSAY - IC50) was found to be 3.17 µM.

For `Cc1cnc(C)c(Nc2nc(C(N)Cc3ccc(C(F)(F)F)cc3)cs2)n1` (stereo unspecified), the IC90 is more than 8.39 µM. For the same molecule, under setting [1], the IC50 was more than 8.39 µM.

As to `FC(F)(F)Oc1cccc(-c2nnc3ccc(-c4cccc5ncccc45)cn23)c1`, the IC90 was 2.55 µM. For the same molecule, the IC50 (HEPG2TOX_HILL_SLOPE 0.706, HEPG2TOX_R_SQUARED 0.938, PBLUC_HILL_SLOPE 2.17, PBLUC_R_SQUARED 0.421, read-out: LUCIFERASE INFECTION ASSAY - IC50) came to 0.928 µM.

For `O=C(CN1C(=O)c2cccc([N+](=O)[O-])c2C1=O)OCC(=O)N1CCC(Cc2ccccc2)CC1`, the IC90 was more than 10 µM. Moreover, the IC50 under setting [1] was more than 10 µM.

With `O=C(CN1C(=O)S/C(=C\c2ccco2)C1=O)c1ccc([N+](=O)[O-])cc1`, the IC90 is more than 10 µM. In addition, the IC50 (HEPG2TOX_HILL_SLOPE 0.122, HEPG2TOX_R_SQUARED 0.0589, read-out: LUCIFERASE INFECTION ASSAY - IC50) was more than 10 µM.

In the case of `CC1CCCCC1NC(=O)c1c[nH]c2ccc(Br)cc12` (stereo unspecified), the IC90 is more than 10 µM. For the same molecule, the IC50 under setting [1] was more than 10 µM.

For the molecule `NCc1cccc(-c2cc(-c3cc(C(F)(F)F)cc(C(F)(F)F)c3)cnc2N)c1`, the IC90 was more than 8.02 µM. Where the note is “FFLUC_HILL_SLOPE 0.255, FFLUC_R_SQUARED 0.011, PBLUC_HILL_SLOPE 2.95, PBLUC_R_SQUARED 0.223, read-out: LUCIFERASE INFECTION ASSAY - IC50”, the IC50 was 7.98 µM.

With `CCCCN1C(=O)C(=O)c2cc(Br)cc(C)c21`, the IC90 is more than 10 µM. Moreover, the IC50 (PBLUC_HILL_SLOPE 2.24, PBLUC_R_SQUARED 0.667, read-out: LUCIFERASE INFECTION ASSAY - IC50) was found to be 4.61 µM.

Regarding `COc1cc(OC)cc(C(=O)N(Cc2ccccc2)c2nc(-c3ccc(Cl)cc3Cl)cs2)c1`, the IC90 is more than 10 µM. The IC50 under setting [1] is more than 10 µM.

With `CN(C)C(CNC(=O)c1ccc(COc2ccccc2)cc1)Cc1ccccc1` (stereo unspecified), the IC90 was more than 10 µM. Further, for the setting “PBLUC_HILL_SLOPE 1.49, PBLUC_R_SQUARED 0.218, read-out: LUCIFERASE INFECTION ASSAY - IC50”, the IC50 was found to be 7.64 µM.

Turning to `COCCCn1c(C)cc(C(=O)CSc2nc3scc(-c4ccccc4)c3c(=O)n2C)c1C`, the IC90 is more than 10 µM. Also, the IC50 (FFLUC_HILL_SLOPE 7.71, FFLUC_R_SQUARED 0.356, PBLUC_HILL_SLOPE 2.63, PBLUC_R_SQUARED 0.68, read-out: LUCIFERASE INFECTION ASSAY - IC50) is 6.41 µM.

Take `Cc1c(C(=O)OCC(=O)/C=C2\N(C)c3ccccc3C2(C)C)sc2nc3n(c(=O)c12)CCC3`: the IC90 is more than 10 µM. Besides, the IC50 under setting [1] is more than 10 µM.

Turning to `O=C(Nc1ccc(C(F)(F)F)cc1[N+](=O)[O-])c1ccccc1O`, the concentration for an effect of 90% (IC90) is 3.69 µM. For the same molecule, the IC50 (HEPG2TOX_HILL_SLOPE 10.5, HEPG2TOX_R_SQUARED 0.302, PBLUC_HILL_SLOPE 15.7, PBLUC_R_SQUARED 0.498, read-out: LUCIFERASE INFECTION ASSAY - IC50) is 3.21 µM.

With `COc1cc(NC(=O)c2cc(N3CCN(c4ccccn4)CC3)ncn2)cc(OC)c1OC`, the IC90 amounted to 1.61 µM. Besides, the 50% inhibitory concentration (IC50) (HEPG2TOX_HILL_SLOPE 1.23, HEPG2TOX_R_SQUARED 0.824, PBLUC_HILL_SLOPE 2.21, PBLUC_R_SQUARED 0.872, read-out: LUCIFERASE INFECTION ASSAY - IC50) was found to be 0.596 µM.

For the molecule `Clc1ccc(-c2cnc3cnc(-c4ccsc4)cn23)cc1`, the IC90 came out at 8.06 µM. For the same molecule, under setting [1], the IC50 is 2.46 µM.

As to `CC(=O)c1c(C)[nH]c(-c2csc(-c3ccc(C)cc3C)n2)c1C`, the IC90 was 5.96 µM. Under “PBLUC_HILL_SLOPE 2.12, PBLUC_R_SQUARED 0.351, read-out: LUCIFERASE INFECTION ASSAY - IC50”, the IC50 is 2.12 µM.

For `COc1cc(-c2cnc3cnc(-c4ccsc4)cn23)cc(OC)c1OC`, the IC90 amounted to 1.45 µM. Further, the IC50 (FFLUC_HILL_SLOPE 0.573, FFLUC_R_SQUARED 0.0155, HEPG2TOX_HILL_SLOPE 1.65, HEPG2TOX_R_SQUARED 0.878, PBLUC_HILL_SLOPE 3.42, PBLUC_R_SQUARED 0.766, read-out: LUCIFERASE INFECTION ASSAY - IC50) was 0.761 µM.

Consider `O=C(OCC1CCCCC1)c1[nH]nc2ccccc12`, for which the IC90 is more than 10 µM. Moreover, the IC50 under setting [1] was more than 10 µM.

Take `CCOC(=O)c1c(C2CC2)csc1NC(=O)COC(=O)c1cc(C)n(-c2cc(Cl)ccc2OC)c1C`: the IC90 is more than 10 µM. Besides, the IC50 (FFLUC_HILL_SLOPE 35.2, FFLUC_R_SQUARED 0.269, read-out: LUCIFERASE INFECTION ASSAY - IC50) was more than 10 µM.

With `CCOC(=O)C(NC(=O)c1ccco1)(Nc1ccc(F)c(Cl)c1)C(F)(F)F` (stereo unspecified), the IC90 was more than 8.07 µM. Besides, the IC50 under setting [1] is more than 8.07 µM.

As to `CCN(CC)CC(O)COc1cc(C(F)(F)F)ccn1` (stereo unspecified), the IC90 was more than 11.3 µM. The 50% inhibitory concentration (IC50) under setting [1] was more than 11.3 µM.

As to `O=C(c1c[nH]c2ccccc12)N1CCN(c2nsc3ccccc23)CC1`, the IC90 was found to be 3.82 µM. Besides, the IC50 (HEPG2TOX_HILL_SLOPE 9.85, HEPG2TOX_R_SQUARED 0.824, PBLUC_HILL_SLOPE 13.5, PBLUC_R_SQUARED 0.79, read-out: LUCIFERASE INFECTION ASSAY - IC50) stood at 3.25 µM.

On to `N=C1C(c2nc(-c3ccccc3)cs2)C(=O)CN1c1ccc2c(c1)OCCO2` (stereo unspecified), for which the IC90 is more than 8.43 µM. Besides, for the setting “HEPG2TOX_HILL_SLOPE 0.297, HEPG2TOX_R_SQUARED 0.47, PBLUC_HILL_SLOPE 1.65, PBLUC_R_SQUARED 0.172, read-out: LUCIFERASE INFECTION ASSAY - IC50”, the IC50 is more than 8.43 µM.

Consider `CC(C)(C)NC(=O)c1csc(C(O)c2cccc(C(F)(F)F)c2)n1` (stereo unspecified), for which the IC90 is more than 10 µM. Where the note is “HEPG2TOX_HILL_SLOPE 14.6, HEPG2TOX_R_SQUARED 0.662, PBLUC_HILL_SLOPE 2.89, PBLUC_R_SQUARED 0.602, read-out: LUCIFERASE INFECTION ASSAY - IC50”, the IC50 was found to be 4.91 µM.

For the molecule `NC(Cc1ccc(F)cc1)c1csc(NC(=O)Nc2ccccc2Oc2ccccc2)n1` (stereo unspecified), the IC90 was more than 7.36 µM. The IC50 under setting [1] is more than 7.36 µM.

On to `CN(C)S(=O)(=O)c1ccc2oc(SCC(=O)Nc3cc(C(C)(C)C)no3)nc2c1`, for which the IC90 worked out at 3.96 µM. Also, the IC50 (HEPG2TOX_HILL_SLOPE 11.6, HEPG2TOX_R_SQUARED 0.793, PBLUC_HILL_SLOPE 13.5, PBLUC_R_SQUARED 0.437, read-out: LUCIFERASE INFECTION ASSAY - IC50) worked out at 3.36 µM.

What is called IC50 is the concentration at which inhibition is half-maximal. The term IC90 denotes the concentration at which the effect reaches the 90% level.

The values above are taken from ChEMBL document CHEMBL4483862, “Open-source discovery of chemical leads for next-generation chemoprotective antimalarials” (2018).
